Measurements taken from publication PMC9488889, “Insight into mode-of-action and structural determinants of the compstatin family of clinical complement inhibitors” (Nature Communications, 2022).
Read-outs that look alike come from different tables or passages of the source. Bridge positions count the residues as written; N and C are the ends. Square brackets hold non-standard residues; d marks the D form. Peptide text beside a SMILES is read from it. Trp(1-Me) = Cn1cc(C[C@H](N)C(=O)O)c2ccccc21; NMeI = CC[C@H](C)[C@H](NC)C(=O)O; Sar = CNCC(=O)O

Target: T1, C3b (Homo sapiens, UniProt P01024)
T1 construct: the α’NT, MG6^α−8, anchor, and C-terminal complement (CTC) domains of the α-chain that are all shared between C3c and C3b; purchased Complement Technology (Tyler, TX, USA)
T1 sequence (P01024 23-667 limits assumed): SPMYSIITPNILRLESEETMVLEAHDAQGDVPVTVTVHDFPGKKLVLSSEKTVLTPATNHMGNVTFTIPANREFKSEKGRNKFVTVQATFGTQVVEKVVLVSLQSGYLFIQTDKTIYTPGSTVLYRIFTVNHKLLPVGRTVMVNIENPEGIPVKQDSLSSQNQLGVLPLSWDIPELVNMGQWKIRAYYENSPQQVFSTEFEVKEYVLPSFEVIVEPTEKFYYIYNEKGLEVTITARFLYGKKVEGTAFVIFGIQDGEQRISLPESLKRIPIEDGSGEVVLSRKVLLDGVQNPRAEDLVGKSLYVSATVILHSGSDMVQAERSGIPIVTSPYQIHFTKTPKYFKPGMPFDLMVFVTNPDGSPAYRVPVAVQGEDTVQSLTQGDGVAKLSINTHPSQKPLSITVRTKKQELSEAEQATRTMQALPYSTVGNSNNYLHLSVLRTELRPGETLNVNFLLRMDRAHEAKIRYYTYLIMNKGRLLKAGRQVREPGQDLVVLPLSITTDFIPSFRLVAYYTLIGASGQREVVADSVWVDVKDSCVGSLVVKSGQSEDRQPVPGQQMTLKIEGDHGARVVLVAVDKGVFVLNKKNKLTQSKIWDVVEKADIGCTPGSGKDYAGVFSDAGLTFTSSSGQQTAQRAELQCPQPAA
T1 sequence (P01024 749-1663 limits assumed): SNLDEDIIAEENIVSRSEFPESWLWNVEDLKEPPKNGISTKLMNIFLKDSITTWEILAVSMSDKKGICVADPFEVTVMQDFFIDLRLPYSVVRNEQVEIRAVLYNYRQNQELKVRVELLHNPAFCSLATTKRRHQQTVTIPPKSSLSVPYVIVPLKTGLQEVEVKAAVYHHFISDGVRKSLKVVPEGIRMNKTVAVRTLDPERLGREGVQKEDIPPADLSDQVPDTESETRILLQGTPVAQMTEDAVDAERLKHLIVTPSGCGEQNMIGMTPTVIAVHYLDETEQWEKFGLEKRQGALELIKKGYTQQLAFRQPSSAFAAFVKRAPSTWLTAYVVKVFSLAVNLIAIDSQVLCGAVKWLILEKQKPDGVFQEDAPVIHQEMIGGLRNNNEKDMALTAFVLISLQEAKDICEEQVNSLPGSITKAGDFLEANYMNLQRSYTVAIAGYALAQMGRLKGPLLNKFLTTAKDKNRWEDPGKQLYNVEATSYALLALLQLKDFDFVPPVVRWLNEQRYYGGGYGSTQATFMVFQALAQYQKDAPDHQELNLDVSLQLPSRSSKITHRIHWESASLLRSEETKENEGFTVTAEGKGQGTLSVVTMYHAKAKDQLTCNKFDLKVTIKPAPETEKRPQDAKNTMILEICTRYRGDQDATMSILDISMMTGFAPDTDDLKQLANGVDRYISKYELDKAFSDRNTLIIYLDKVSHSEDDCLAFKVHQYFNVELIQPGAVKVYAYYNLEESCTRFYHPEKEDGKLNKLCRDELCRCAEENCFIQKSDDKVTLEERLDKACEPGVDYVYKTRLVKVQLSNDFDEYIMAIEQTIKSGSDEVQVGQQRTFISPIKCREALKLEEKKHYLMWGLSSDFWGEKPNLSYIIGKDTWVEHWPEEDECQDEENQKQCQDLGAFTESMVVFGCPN
Assay: SPR kinetic binding studies on immobilized C3b
Conditions: for kd: Suppl. Fig. 7e, Cp40 analogs at position 5, three SPR experiments
Experimental: All compstatin analogues were characterized concerning affinity and kinetic profiles by surface plasmon resonance (SPR) using a Biacore T200 instrument (Cytiva, Piscataway, USA). Experiments were run at 25 °C in HBST buffer (10 mM HEPES, 150 mM NaCl, 0.05% Tween-20, pH 7.4). C3b was immobilized on a carboxymethyl dextran hydrogel chip (CMD200; XanTec, Düsseldorf, Germany) using standard amine coupling in sodium acetate buffer pH 4.5 at a flow rate of 10 µl/min. Immobilization densities of 8000 and 4000 resonance units (RU) were achieved on separate flow cells. A reference flow cell was activated with the same method (NHS/EDC). All active sites were inactivated and blocked with ethanolamine. A single cycle approach at a flow rate of 30 µl/min was used for kinetic analysis by injecting five increasing concentrations of each compound (0.5–40 nM) consecutively without regeneration in-between injections. Individual injections within a cycle were 120 s long with a 60 sec dissociation phase between injections. After the highest concentration of each derivative, a dissociation period of 6,000–14,400 sec was added to ensure complete dissociation in absence of suitable regeneration method. […] Signals from the reference cell from an ensemble of buffer blank injections were subtracted to correct for buffer effects and injection artefacts. Kinetic data was processed with the Biacore T200 Software (version 3.1; Cytiva) using a single-cycle evaluation setup by global fitting each data set to a 1:1 Langmuir binding model. Association and dissociation rate constants (ka and kd, respectively) were fitted, and the equilibration constant KD was calculated based on the following equation: KD = kd/ka. Each assay was performed at least twice and in duplicate injections.

[1] = pH 7.4, read-out: ka, Dataset 1
[2] = pH 7.4, read-out: ka, Dataset 2
[3] = pH 7.4, read-out: ka, Dataset 3
[4] = Table 1, amine-reactive immobilized C3b, 25 °C, average±SD of three independent SPR experiments, read-out: KD
[5] = source data of Table 1, single SPR dataset 1, read-out: KD, Dataset 1
[6] = source data of Table 1, single SPR dataset 2, read-out: KD, Dataset 2
[7] = source data of Table 1, single SPR dataset 3, read-out: KD, Dataset 3

Row | SMILES | kon (pH 7.4, read-out: ka) [M⁻¹ s⁻¹] | kon [1] [M⁻¹ s⁻¹] | kon [2] [M⁻¹ s⁻¹] | kon [3] [M⁻¹ s⁻¹] | kd | Kd [4] [nM] | Kd [5] [nM] | Kd [6] [nM] | Kd [7] [nM]
1 | CC[C@H](C)[C@H](NC(=O)[C@H](N)Cc1ccc(O)cc1)C(=O)N[C@H]1CSSC[C@@H](C(=O)N(C)[C@H](C(N)=O)[C@@H](C)CC)NC(=O)[C@H](CCCNC(N)=O)NC(=O)[C@H](Cc2c[nH]cn2)NC(=O)[C@H](C)NC(=O)CN(C)C(=O)[C@H](Cc2c[nH]c3ccccc23)NC(=O)[C@H](CC(=O)O)NC(=O)[C@H](CCC(N)=O)NC(=O)[C@H](Cc2cn(C)c3ccccc23)NC(=O)[C@H](C(C)C)NC1=O [Cp40 R12Cit] | 600000 ± 100000 | 320000 | 670000 | 790000 |  |  |  |  | 
2 | CC[C@H](C)[C@H](NC(=O)[C@H](N)Cc1ccc(O)cc1)C(=O)N[C@H]1CSSC[C@@H](C(=O)N(C)[C@H](C(N)=O)[C@@H](C)CC)NC(=O)[C@H](CCCNC(=N)N)NC(=O)[C@H](Cc2c[nH]cn2)NC(=O)[C@H](C)NC(=O)CN(C)C(=O)[C@H](Cc2c[nH]c3ccccc23)NC(=O)[C@H](CC(=O)O)NC(=O)[C@H](CCC(N)=O)NC(=O)[C@H](Cc2c[nH]c3ccccc23)NC(=O)[C@H](C(C)C)NC1=O [Cp40 (1MeW)5 W] | 200000 | 130000 | 150000 | 180000 |  |  |  |  | 
3 | CC[C@H](C)[C@H](NC(=O)[C@H](N)Cc1ccc(O)cc1)C(=O)N[C@H]1CSSC[C@@H](C(=O)N(C)[C@H](C(N)=O)[C@@H](C)CC)NC(=O)[C@H](CCCNC(=N)N)NC(=O)[C@H](Cc2c[nH]cn2)NC(=O)[C@H](C)NC(=O)CN(C)C(=O)[C@H](Cc2c[nH]c3ccccc23)NC(=O)[C@H](CC(=O)O)NC(=O)[C@H](CCC(N)=O)NC(=O)[C@H](Cc2cn(CCC(C)C)c3ccccc23)NC(=O)[C@H](C(C)C)NC1=O [1(3Me)BuW] | 200000 |  |  |  | 0.7 ± 0.0 10-3 s-1 |  |  |  | 
4 | CC[C@H](C)[C@H](NC(C)=O)C(=O)N[C@H]1CSSC[C@@H](C(=O)N(C)[C@H](C(N)=O)[C@@H](C)CC)NC(=O)[C@H](CCCNC(=N)N)NC(=O)[C@H](Cc2c[nH]cn2)NC(=O)[C@H](C)NC(=O)CN(C)C(=O)[C@H](Cc2c[nH]c3ccccc23)NC(=O)[C@H](CC(=O)O)NC(=O)[C@H](CCC(N)=O)NC(=O)[C@H](Cc2cn(C)c3ccccc23)NC(=O)[C@H](C(C)C)NC1=O [Cp20, reference compound] | 1.3e+06 ± 300000 | 1.63e+06 | 1.23e+06 | 960000 |  | 3.4 ± 0.6 | 3.78 | 2.6 | 3.76
5 | CC[C@H](C)[C@H](NC(=O)[C@H](N)Cc1ccc(O)cc1)C(=O)N[C@H]1CSSC[C@@H](C(=O)N[C@@H](C)C(N)=O)NC(=O)[C@H](CCCNC(=N)N)NC(=O)[C@H](Cc2c[nH]cn2)NC(=O)[C@H](C)NC(=O)CN(C)C(=O)[C@H](Cc2c[nH]c3ccccc23)NC(=O)[C@H](CC(=O)O)NC(=O)[C@H](CCC(N)=O)NC(=O)[C@H](Cc2cn(C)c3ccccc23)NC(=O)[C@H](C(C)C)NC1=O [Cp40 mI14A] (H-[dY]ICV[Trp(1-Me)]QDW[Sar]AHRCA-NH2; disulfide 3-13) | 3e+06 ± 1.6e+06 | 4.23e+06 | 1.11e+06 | 3.53e+06 |  |  |  |  | 
6 | CC[C@H](C)[C@H](NC(=O)[C@H](N)Cc1ccc(O)cc1)C(=O)N[C@H]1CSSC[C@@H](C(=O)N(C)[C@H](C(N)=O)[C@@H](C)CC)NC(=O)[C@H](CCCCN)NC(=O)[C@H](Cc2c[nH]cn2)NC(=O)[C@H](C)NC(=O)CN(C)C(=O)[C@H](Cc2c[nH]c3ccccc23)NC(=O)[C@H](CC(=O)O)NC(=O)[C@H](CCC(N)=O)NC(=O)[C@H](Cc2cn(C)c3ccccc23)NC(=O)[C@H](C(C)C)NC1=O [Cp40 R12K] (H-[dY]ICV[Trp(1-Me)]QDW[Sar]AHKC[NMeI]-NH2; disulfide 3-13) |  | 630000 | 470000 | 780000 |  |  |  |  | 
7 | CCCCn1cc(C[C@@H]2NC(=O)[C@H](C(C)C)NC(=O)[C@@H](NC(=O)[C@@H](NC(=O)[C@H](N)Cc3ccc(O)cc3)[C@@H](C)CC)CSSC[C@@H](C(=O)N(C)[C@H](C(N)=O)[C@@H](C)CC)NC(=O)[C@H](CCCNC(=N)N)NC(=O)[C@H](Cc3c[nH]cn3)NC(=O)[C@H](C)NC(=O)CN(C)C(=O)[C@H](Cc3c[nH]c4ccccc34)NC(=O)[C@H](CC(=O)O)NC(=O)[C@H](CCC(N)=O)NC2=O)c2ccccc21 [1BuW] | 200000 |  |  |  | 0.5 ± 0.2 10-3 s-1 |  |  |  | 
8 | CC[C@H](C)[C@H](NC(=O)[C@H](C)N)C(=O)N[C@H]1CSSC[C@@H](C(=O)N(C)[C@H](C(N)=O)[C@@H](C)CC)NC(=O)[C@H](CCCNC(=N)N)NC(=O)[C@H](Cc2c[nH]cn2)NC(=O)[C@H](C)NC(=O)CN(C)C(=O)[C@H](Cc2c[nH]c3ccccc23)NC(=O)[C@H](CC(=O)O)NC(=O)[C@H](CCC(N)=O)NC(=O)[C@H](Cc2cn(C)c3ccccc23)NC(=O)[C@H](C(C)C)NC1=O [Cp40 y1A] (H-AICV[Trp(1-Me)]QDW[Sar]AHRC[NMeI]-NH2; disulfide 3-13) | 400000 | 470000 |  | 290000 |  | 3.8 ± 0.5 | 4.11 | 4.27 | 3.1
9 | CC[C@H](C)[C@H](NC(=O)[C@H](N)Cc1ccc(O)cc1)C(=O)N[C@H]1CSSC[C@@H](C(=O)N(C)[C@H](C(N)=O)[C@@H](C)CC)NC(=O)[C@H](CCCNC(=N)N)NC(=O)[C@H](Cc2c[nH]cn2)NC(=O)[C@H](C)NC(=O)CNC(=O)[C@H](Cc2c[nH]c3ccccc23)NC(=O)[C@H](CC(=O)O)NC(=O)[C@H](CCC(N)=O)NC(=O)[C@H](Cc2cn(C)c3ccccc23)NC(=O)[C@H](C(C)C)NC1=O [Cp40 Sar9G] | 900000 ± 400000 | 1.29e+06 | 1.1e+06 | 360000 |  | 1.7 ± 0.7 | 0.92 | 1.39 | 2.63
10 | CC[C@H](C)[C@H](NC(=O)[C@H](N)Cc1ccc(O)cc1)C(=O)N[C@H]1CSSC[C@@H](C(=O)N(C)[C@H](C(N)=O)[C@@H](C)CC)NC(=O)[C@H](CCCNC(=N)N)NC(=O)[C@H](Cc2c[nH]cn2)NC(=O)[C@H](C)NC(=O)CN(C)C(=O)[C@H](Cc2c[nH]c3ccccc23)NC(=O)[C@H](CCC(=O)O)NC(=O)[C@H](CCC(N)=O)NC(=O)[C@H](Cc2cn(C)c3ccccc23)NC(=O)[C@H](C(C)C)NC1=O [Cp40 D7E] (H-[dY]ICV[Trp(1-Me)]QEW[Sar]AHRC[NMeI]-NH2; disulfide 3-13) | 900000 ± 200000 | 1.17e+06 | 650000 | 730000 |  |  |  |  | 
